Consider 13 compounds from patent US20250084087A1, “BICYCLIC HETEROCYCLES AS MRGPRX2 ANTAGONISTS” (Incyte Corporation, priority 2023, published 2025).

pIC50: −log10 of the molar value.

Common to all, as to type: cell-based
The target in experiment [1] is T1, MRGPRX2 (Homo sapiens, UniProt Q96LB1).
T1 sequence (Q96LB1 1-330): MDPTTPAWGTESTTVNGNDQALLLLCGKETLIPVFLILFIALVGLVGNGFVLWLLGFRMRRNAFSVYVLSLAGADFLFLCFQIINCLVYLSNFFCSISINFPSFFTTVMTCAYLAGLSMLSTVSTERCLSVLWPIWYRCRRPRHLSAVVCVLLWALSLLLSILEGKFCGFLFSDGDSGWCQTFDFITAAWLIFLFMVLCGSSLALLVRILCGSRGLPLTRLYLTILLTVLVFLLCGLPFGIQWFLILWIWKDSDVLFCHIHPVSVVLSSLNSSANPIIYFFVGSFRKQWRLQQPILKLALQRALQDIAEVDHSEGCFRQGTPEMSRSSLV
In words: MRGPRX2 β-Arrestin recruitment assay (PathHunter). Set-up: host or cells: CHO-K1 (PathHunter). The note with it: PathHunter CHO-K1 MRGPRX2 β-Arrestin cell line; agonist Cortistatin 14 0.25 μM. The text has this:
Example C: MRGPRX2 P-Arrestin Assay
This assay measures compound inhibition of P-Arrestin recruitment, which is part of the G protein-independent pathway that results from the ligand-activated GPCR phosphorylation by specific GPCR kinases. The PathHunter CHO-K1 MRPGRX2 B-Arrestin Cell line stably expressing ProLink tagged MRGPRX2 and Enzyme Acceptor Tagged B-Arrestin was purchased from Eurofins DiscoverX, (Fremont, CA).
The cells were maintained in culture medium from the Europhins DiscoverX Cell Culture Kit-107 which includes FBS, hygromycin B and G418. For the assay, the cells were harvested and were resuspended with Cell Plating Reagent 2 (Eurofins DiscoverX). Cells were added 10000 cells in 25 μL/well to a 384-well black cell culture plate (Greiner VWR, Radnor, PA) which contained 125 nL/well of compound at a selected serially diluted concentration range or DMSO. The plate was incubated at 37° C. with 5% CO2 for 1 h. 2 μL/well of agonist Cortistatin 14 was diluted in Protein Dilution Buffer, (Eurofins DiscoverX) for a final concentration of 0.25 μM, was added and the plate was incubated at 37° C. with 5% CO2 for 90 min. 14 μL/well of Detection Reagent Mix (PathHunter Detection Kit, Eurofins DiscoverX) was added to the plates and further incubated for 1 h in the dark. Plates were read on the PHERAstar microplate reader (BMG Labtech Cary, NC) measuring luminescence 0.1 to 1 second per well. Data was normalized using DMSO only wells and wells with high concentration of reference antagonist as controls. Compound IC50 curves were globally fitted with 3- or 4-parameter Hill equation in a Genedata Screener (Genedata Basel, Switzerland).
(In general: Recruitment of arrestin is a read-out of receptor activation apart from second messengers.)

Experiment [2] deals with T1, MRGPRX2. In words: MRGPRX2 FLIPR calcium mobilization assay. Set-up: host or cells: CHO-K1. The note with it: CHO-K1 cells stably expressing human MRGPRX2; Ca2+ release; agonist Cortistatin-14 at EC80. Here is the method: Example A. MRGPRX2 FLIPR Calcium Mobilization Assay
Chinese hamster ovary (CHO-K1) cells stably expressing human MRGPRX2 were purchased from Genescript (Piscataway, NJ). The cells were maintained in culture medium (Ham's F-12K) containing 10% (v/v) FBS, 200 μg/mL Zeocin, 100 units/mL penicillin G and 100 μg/mL streptomycin (Life Technologies, Carlsbad, CA). For the assay, the cells were harvested and resuspended with culture medium without Zeocin before plating at 8000 cells per well in 20 μL in 384-well black clear bottom cell culture plates (VWR, Radnor, PA). After 24 hour culture at 37° C. and 5% CO2, the cells were loaded with 20 μL/well of calcium dye (FLIPR Calcium 6 Assay Kit, Molecular Devices, San Jose, CA) diluted in loading buffer (1× Hank's Balanced Salt Solution (HBSS), 5 mM probenecid, 20 mM 4-(2-hydroxyethyl)-1-piperazineethanesulfonic acid (HEPES), pH 7.4, VWR, Radnor, PA) followed with 45 min. incubation at 37° C. and 40 min. at r.t. in the dark. Cells were then treated with the addition of 10 uL/well test compounds with a range of increasing concentrations diluted in the assay buffer (1×HBSS, 20 mM HEPES, pH 7.4, VWR, Radnor, PA) with FLIPR Penta (Molecular Devices. San Jose, CA) and incubated for 30 min. at r.t. Ca^2+ release was measured with FLIPR Penta with 10 seconds basal fluorescence measurement, then 12.5 μL of 5× agonist Cortistatin-14 (Tocris, Minneapolis, MN) at final concentration corresponding to the EC80 were added followed with continued fluorescence signal monitoring for an additional 110 seconds. The base line adjusted (median of first 10s base line) max value of the Relative Fluorescence Unit (RFU) was plotted against compound concentrations. Wells with no compound were served as the positive controls, and wells with high concentration of reference antagonist were used as negative controls. IC50 curves were globally fitted with 3- or 4-parameter Hill equation in a Genedata Screener (Genedata Basel, Switzerland).
A general note: A change in cytosolic calcium serves as a functional read-out for many receptors and channels.

For experiment [3], the target named is T1, MRGPRX2. In words: MRGPRX2 IP1 HTRF assay. Set-up: host or cells: CHO-K1. The note with it: CHO-K1 cells stably expressing human MRGPRX2; IP1 accumulation; agonist Cortistatin 14 1 μM. The text has this: Example B: MRGPRX2 IP1 HTRF Assay
This assay measures compound inhibition of myo-Inositol 1 phosphate (IP1) accumulation in CHO-K1 cells. Chinese hamster ovary (CHO-K1) cells stably expressing human MRGPRX2 were purchased from GenScript (Piscataway, NJ).
For the HTRF IP1 determination, an IP-One GqKit (Perkin Elmer Cisbio, Waltham, MA), which includes all reagents and buffers in this protocol, was used. The cells were maintained in culture medium (Ham's F-12K) containing 10% (v/v) FBS, and 200 μg/mL Zeocin. For the assay, the cells were harvested and resuspended in culture medium with 2% FBS and without Zeocin, then were passed through a 40 μm filter. Cells were added at 20000 cells in a 5 μL/well to a 384-well white small volume cell culture plate (Greiner VWR, Radnor, PA) which contained 50 nL/well of test compound serially diluted at a selected concentration range in DMSO. 5 μL/well of prepared 2× Stimulation Buffer2 was then added to plates and was incubated at 37° C. with 5% CO2 for 1 h. 5 μL/well of agonist Cortistatin 14 (Bio-TechneR&D Systems, Minneapolis, MN) in 1× Stimulation Buffer2, for a 1 μM final concentration, was then added to plates and incubated at 37° C. with 5% CO2 for 1 h. 6 μL/well of 1:20 diluted Detection Reagent Mix (d2 and Cryptate) was added to the plates and incubated for 1 h in the dark. Plates were read on the PHERAstar microplate reader (BMG Labtech Cary, NC) to determine the HTRF ratio of the acceptor and donor emission signals. The IP1 concentrations were calculated from a standard curve following the IP-One GQ kit instructions. Wells with DMSO only and wells with high concentration of reference antagonist were used as controls for normalization. Compound IC50 curves were globally fitted with 3- or 4-parameter Hill equation in a Genedata Screener (Genedata Basel, Switzerland).
(Time-resolved FRET reads energy transfer from a long-lived donor to a nearby acceptor.)

The term pIC50 denotes the IC50 on a negative log10 scale, so that one unit is a factor of ten. As for `OC1CCC(CNc2cc(C(F)(F)F)nc3cc(Br)nn23)(c2ccccc2)C1` (racemic) [Example 84, 3-(((2-Bromo-5-(trifluoromethyl)pyrazolo[1,5-a]pyrimidin-7-yl)amino)methyl)-3-phenylcyclopentan-1-ol], the negative logarithm of the IC50 (pIC50) at MRGPRX2 [1] and at MRGPRX2 [2] was 7.00 to 10.00 each time.

Turning to `Cc1cc2nc(I)cc(NCC3(c4ccccc4)CCOC3)n2n1` (centres unmarked) [Example 78, 5-Iodo-2-methyl-N-((3-phenyltetrahydrofuran-3-yl)methyl)pyrazolo[1,5-a]pyrimidin-7-amine], the pIC50 on MRGPRX2 [2] was 6.00 to 7.00.

As for `N#Cc1cc2nc(C(F)(F)F)cc(NCC3(n4cccn4)CN(S(N)(=O)=O)C3)n2n1` [Example 95, 3-(((2-Cyano-5-(trifluoromethyl)pyrazolo[1,5-a]pyrimidin-7-yl)amino)methyl)-3-(1H-pyrazol-1-yl)azetidine-1-sulfonamide], the pIC50 at MRGPRX2 [2] is 7.00 to 10.00.

As to `O=C(N[C@H]1CC[C@H](O)CC1)N1CC(CNc2cc(C(F)(F)F)nc3cc(C(F)(F)F)nn23)(c2ccc(F)c(F)c2)C1` [Example 100, 3-(((2,5-Bis(trifluoromethyl)pyrazolo[1,5-a]pyrimidin-7-yl)amino)methyl)-3-(3,4-difluorophenyl)-N-((1r,4r)-4-hydroxycyclohexyl)azetidine-1-carboxamide], the negative-log IC50 (pIC50) on MRGPRX2 [1] and on MRGPRX2 [3] was 7.00 to 10.00 each time.

Take `[2H]C([2H])([2H])NC(=O)N1CC(CNc2cccc3nc(C(F)(F)F)cn23)(c2ccc(F)cc2)C1` [Example 101, 3-(4-Fluorophenyl)-N-(methyl-d3)-3-(((2-(trifluoromethyl)imidazo[1,2-a]pyridin-5-yl)amino)methyl)azetidine-1-carboxamide]: the pIC50 on MRGPRX2 [1] and at MRGPRX2 [3] was 7.00 to 10.00 each time.

As for `O=C(N[C@H]1CC[C@H](O)CC1)N1CC(CNc2cccc3nc(C(F)(F)F)cn23)(c2ccc(F)cc2)C1` [Example 102, 3-(4-Fluorophenyl)-N-((1r,4r)-4-hydroxycyclohexyl)-3-(((2-(trifluoromethyl)imidazo[1,2-a]pyridin-5-yl)amino)methyl)azetidine-1-carboxamide], the pIC50 on MRGPRX2 [1] and at MRGPRX2 [3] was 7.00 to 10.00 each time.

As to `[2H]C([2H])([2H])NC(=O)N1CC(CNc2cccc3nc(C(F)(F)F)nn23)(c2ccc(F)cc2)C1` [Example 103, 3-(4-Fluorophenyl)-N-(methyl-d3)-3-(((2-(trifluoromethyl)-[1,2,4]triazolo[1,5-a]pyridin-5-yl)amino)methyl)azetidine-1-carboxamide], the pIC50 at MRGPRX2 [1] and at MRGPRX2 [3] was 7.00 to 10.00 each time.

Take `CN(C)c1cc(NCC2(c3ccc(F)cc3)CN(S(N)(=O)=O)C2)n2nc(C(F)(F)F)cc2n1` [Example 105, 3-(((5-(Dimethylamino)-2-(trifluoromethyl)pyrazolo[1,5-a]pyrimidin-7-yl)amino)methyl)-3-(4-fluorophenyl)azetidine-1-sulfonamide]: the negative-log IC50 (pIC50) at MRGPRX2 [2] was 7.00 to 10.00.

As for `[2H]C([2H])([2H])c1cc(NCC2(c3ccc(F)cc3)CN(C(=O)NCC(F)(F)F)C2)n2nc(C(F)(F)F)cc2n1` [Example 109, 3-(4-Fluorophenyl)-3-(((5-(methyl-d3)-2-(trifluoromethyl)pyrazolo[1,5-a]pyrimidin-7-yl)amino)methyl)-N-(2,2,2-trifluoroethyl)azetidine-1-carboxamide], the pIC50 at MRGPRX2 [1] and on MRGPRX2 [3] was 7.00 to 10.00 throughout.

As for `[2H]C([2H])([2H])c1cc(NCC2(c3ccc(F)cc3)CN(C(=O)NCC(F)F)C2)n2nc(C(F)(F)F)cc2n1` [Example 110, N-(2,2-Difluoroethyl)-3-(4-fluorophenyl)-3-(((5-(methyl-d3)-2-(trifluoromethyl)pyrazolo[1,5-a]pyrimidin-7-yl)amino)methyl)azetidine-1-carboxamide], the pIC50 on MRGPRX2 [1] and on MRGPRX2 [3] was 7.00 to 10.00 each time.

For `[2H]C([2H])([2H])C([2H])([2H])c1cc(NCC2(c3ccc(F)cc3)CN(C(N)=O)C2)n2nc(C(F)(F)F)cc2n1` [Example 111, 3-(((5-(Ethyl-d5)-2-(trifluoromethyl)pyrazolo[1,5-a]pyrimidin-7-yl)amino)methyl)-3-(4-fluorophenyl)azetidine-1-carboxamide], the pIC50 on MRGPRX2 [1] and at MRGPRX2 [3] was 7.00 to 10.00 in each case.

As to `[2H]C([2H])([2H])C([2H])([2H])c1cc(NCC2(c3ccc(F)cc3)CN(C(=O)N[C@H]3CC[C@H](O)CC3)C2)n2nc(C(F)(F)F)cc2n1` [Example 112, 3-(((5-(Ethyl-d5)-2-(trifluoromethyl)pyrazolo[1,5-a]pyrimidin-7-yl)amino)methyl)-3-(4-fluorophenyl)-N-((1r,4r)-4-hydroxycyclohexyl)azetidine-1-carboxamide], the pIC50 on MRGPRX2 [1] and at MRGPRX2 [3] was 7.00 to 10.00 in each case.

`[2H]C([2H])([2H])C([2H])([2H])c1cc(NCC2(c3ccc(F)cc3)CN(C(=O)N[C@@H]3CC[C@@H](O)C3)C2)n2nc(C(F)(F)F)cc2n1` [Example 113, 3-(((5-(Ethyl-d5)-2-(trifluoromethyl)pyrazolo[1,5-a]pyrimidin-7-yl)amino)methyl)-3-(4-fluorophenyl)-N-((1R,3R)-3-hydroxycyclopentyl)azetidine-1-carboxamide]: the pIC50 on MRGPRX2 [1] and at MRGPRX2 [3] was 7.00 to 10.00 throughout.
